# US20090036528A1 (priority 2007, published 2009)
# Where a SMILES comes first, the peptide text is derived from it.
# Columns and labels:
# [1] = system: Stratum Corneum Tryptic Enzyme (SCTE); conditions: reported rosacea study; cited from earlier work
# [2] = FUTHAN compared with aprotinin and AEBSF; cited from earlier work
# chymotrypsin = chymotrypsin (Bos taurus, UniProt P00766); conditions: literature (Niinobe et al., Fujii et al.); cited from earlier work
# various serine proteases = assay: inhibition of various serine proteases compared with known inhibitors; format: biochemical; conditions: FIG. 3
# KLK5/SCTE = biological target: T1, KLK5/SCTE (Homo sapiens, UniProt Q9Y337); assay: enzyme inhibition KLK5/SCTE; format: biochemical; conditions: approximate; read-out: IC50 (50% inhibition) KLK5/SCTE
# T1 sequence (Q9Y337 23-293): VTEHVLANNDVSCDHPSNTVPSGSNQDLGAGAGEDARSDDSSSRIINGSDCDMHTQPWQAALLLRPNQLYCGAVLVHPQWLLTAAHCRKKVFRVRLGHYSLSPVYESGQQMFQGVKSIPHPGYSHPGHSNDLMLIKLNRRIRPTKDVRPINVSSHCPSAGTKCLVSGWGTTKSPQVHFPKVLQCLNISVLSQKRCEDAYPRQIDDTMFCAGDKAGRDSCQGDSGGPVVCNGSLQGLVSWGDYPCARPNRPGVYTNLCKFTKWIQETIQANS
# Description: (§1) It is understood that aspartame, FUTHAN, and combinations thereof may be utilized.
# [3] = system: total protease activity in skin extracts; assay: inhibition of total protease activity in skin extracts; format: biochemical, human; conditions: skin extracts from three individuals; FIG. 2
# KLK7/SCCE = KLK7/SCCE (Homo sapiens, UniProt P49862); assay: enzyme inhibition KLK7/SCCE; format: biochemical; conditions: approximate; read-out: IC50 (50% inhibition) KLK7/SCCE
# Description: as §1
# pancreatic kallikrein = pancreatic kallikrein (Homo sapiens, UniProt P06870); assay: enzyme inhibition pancreatic kallikrein; format: biochemical; conditions: approximate; read-out: IC50 (50% inhibition) pancreatic kallikrein
# Description: Enzyme inhibition data was collected for KLK5/SCTE, KLK7/SCCE7, pancreatic kallikrein and trypsin (control).
# [4] = bone density in human subjects ingesting aspartame (bone scans, dental records); conditions: subject
# COX-1 = COX-1 (Homo sapiens, UniProt P23219); assay: COX-1 enzyme inhibition
# [5] = aspartame lotion on acetic acid burn; format: in vivo, human; conditions: lotion application; burn from acetic acid spilled on an individual's leg
# Description: It is also contemplated that the current invention may also help the redness of the skin and/or promote healing for the same injury.
# [6] = pigs fed aspartame over a two month period: bleeding time and platelet count; format: in vivo; conditions: pigs fed 75-300 mg aspartame/100 weight/day over a two month period
# Description: Recent chemical evidence has documented the mechanism of the analgesia and blood thinning properties of ASP as attributable in part to the compound's ability to inhibit the cyclo-oxygenase enzymes known as COX-1 and COX-2. […] It is contemplated that a preferred embodiment may use a coated tablet or pill that may prevent or reduce hydrolysis of the aspartame ester group in the acidic conditions of the stomach.
# [7] = chronic anemia patients using fruit flavored drink with aspartame; format: in vivo, human; conditions: fruit flavored drink combination with aspartame
# Description: The current invention may utilize a pharmaceutically effective amount of aspartame or Asp-Phe for the treatment of sickle cell anemia and or chronic anemia in general. […] It is also contemplated that the current invention may be utilized as a food supplement product with beneficial attributes to chronic anemia patients which may include most cancer patients under treatment.
# COX-2 = biological target: T2, COX-2 (Homo sapiens, UniProt P35354); assay: COX-2 enzyme inhibition
# T2 sequence (P35354 18-604): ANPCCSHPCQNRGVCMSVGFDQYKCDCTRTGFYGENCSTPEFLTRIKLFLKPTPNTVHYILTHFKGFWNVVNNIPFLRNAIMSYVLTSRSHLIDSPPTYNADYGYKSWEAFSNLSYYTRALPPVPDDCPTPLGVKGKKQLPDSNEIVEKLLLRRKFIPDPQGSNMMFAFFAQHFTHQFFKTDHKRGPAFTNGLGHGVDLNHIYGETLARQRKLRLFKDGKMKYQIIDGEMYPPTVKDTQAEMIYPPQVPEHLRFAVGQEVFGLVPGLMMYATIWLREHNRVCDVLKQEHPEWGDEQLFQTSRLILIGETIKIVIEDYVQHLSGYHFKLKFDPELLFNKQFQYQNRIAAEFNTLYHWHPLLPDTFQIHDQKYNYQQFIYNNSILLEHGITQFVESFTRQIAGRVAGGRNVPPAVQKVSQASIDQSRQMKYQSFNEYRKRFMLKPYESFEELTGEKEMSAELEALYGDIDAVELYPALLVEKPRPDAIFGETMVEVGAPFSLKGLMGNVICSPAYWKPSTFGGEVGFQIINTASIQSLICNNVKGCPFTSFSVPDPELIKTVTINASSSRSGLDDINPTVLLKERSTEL
# SRT-ORT mouse model = assay: SRT-ORT osteoarthritis mouse model, aspartame chow, X-ray analyses; format: in vivo; conditions: chow containing 4 mg Aspartame/g, 12-18 months, vs non-supplemented chow
# Description: It has been reported that isotopically labeled Aspartame/Asp-Phe distributes to various tissues including the bones (See Aspartame Physiology and Biochemistry, Ed. Stegink, Lewis, D. and Filner, L. J. (1984), Marcel Decker, NY, Chapter 8, “Tissue Distribution of Orally Administered Isotopically Labeled Aspartame in Rat.” By Matsuzawa, Y., O'Hara, Y., pp. 161-199.). It is well established that the ester group on aspartame is labile to both acid hydrolysis, as exists in the stomach, and to enzyme esterases that are common to all body fluids and tissues. […] It is contemplated that this mechanism will enhance the transfer of essential minerals from the digestive system to the blood, tissues, and cells. Further evidence that aspartame (Asp-Phe) ingestion contributes to muscle (tissue) density and bone density enhancement comes from mouse studies. The SRT-ORT mouse model is a genetically deficient mouse strain obtained from NIH with a natural history of developing osteoarthritis. Blinded experiments were conducted with littermates divided into two groups, one fed chow containing 4 mg Aspartame/g. and the other fed non-supplemented chow over a period of 12-18 months. X-ray analyses were performed on the cortex and marrow spaces of the right and left femurs, as well as the quadriceps in the femoris area and joint calcification. […] The increase in calcification in the treated animal cohort at the injured joints gave a P value <0.0001. An unexpected increase in quadriceps muscle mass index for the treated animals gave a P value of 0.0185. These analyses were preformed on an n value of 23 animals in the treated set and 18 animals in the controls. Therefore, it is contemplated that animals fed aspartame over an extended time period have increased bone density and muscle mass indicating increased or enhanced calcium, and perhaps other minerals, bioavailability and utility.
# [8] = in excess of 300 mg/day for several years
# Sequence of COX-1 (P23219 24-599): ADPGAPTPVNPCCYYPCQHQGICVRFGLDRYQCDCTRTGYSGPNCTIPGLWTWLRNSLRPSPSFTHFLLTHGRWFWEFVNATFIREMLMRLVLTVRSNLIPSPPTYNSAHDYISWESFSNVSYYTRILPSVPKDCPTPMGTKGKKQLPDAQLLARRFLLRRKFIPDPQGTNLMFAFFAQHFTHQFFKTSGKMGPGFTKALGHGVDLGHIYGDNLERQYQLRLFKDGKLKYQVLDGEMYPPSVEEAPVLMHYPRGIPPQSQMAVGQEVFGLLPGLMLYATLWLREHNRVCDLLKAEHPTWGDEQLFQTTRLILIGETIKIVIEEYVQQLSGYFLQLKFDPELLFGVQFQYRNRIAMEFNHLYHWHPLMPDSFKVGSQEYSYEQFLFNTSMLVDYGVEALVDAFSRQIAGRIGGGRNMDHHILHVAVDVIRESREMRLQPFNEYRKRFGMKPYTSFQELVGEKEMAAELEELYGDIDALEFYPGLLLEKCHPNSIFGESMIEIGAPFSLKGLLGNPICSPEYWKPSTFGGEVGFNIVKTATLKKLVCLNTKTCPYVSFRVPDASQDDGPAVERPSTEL
# Sequence of pancreatic kallikrein (P06870 25-262): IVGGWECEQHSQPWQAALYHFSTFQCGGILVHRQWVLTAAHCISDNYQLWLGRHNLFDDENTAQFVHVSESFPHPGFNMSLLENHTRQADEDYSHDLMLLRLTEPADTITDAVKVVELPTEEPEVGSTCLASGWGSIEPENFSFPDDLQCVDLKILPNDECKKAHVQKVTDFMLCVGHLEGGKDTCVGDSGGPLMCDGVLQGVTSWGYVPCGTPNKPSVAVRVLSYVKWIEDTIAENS
# Sequence of KLK7/SCCE (P49862 30-253): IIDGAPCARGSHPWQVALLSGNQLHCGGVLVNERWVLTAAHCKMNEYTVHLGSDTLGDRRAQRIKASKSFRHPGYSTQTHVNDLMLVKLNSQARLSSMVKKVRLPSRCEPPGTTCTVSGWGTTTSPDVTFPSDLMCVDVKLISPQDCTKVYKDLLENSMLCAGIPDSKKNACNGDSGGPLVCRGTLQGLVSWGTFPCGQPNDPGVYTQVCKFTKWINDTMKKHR
molecule,measurement,setting,value
"NCCc1ccc(S(=O)(=O)F)cc1 [AEBSF, 4-(2-aminoethyl)-benzenesulfonyl fluoride]",inhibition of SCTE,[1],effective in inhibiting this enzyme
same,toxicity / side effects,[2],known serious side effects
"CS(=O)(=O)O.CS(=O)(=O)O.N=C(N)Nc1ccc(C(=O)Oc2ccc3cc(C(=N)N)ccc3c2)cc1 [FUTHAN, 6-amidino-2-naphthyl p-guanidinobenzoate dimethanesulfonate]",inhibition of chymotrypsin or enzymes with chymotrypsin specificity,chymotrypsin,not chymotrypsin
same,inhibitor strength compared with aprotinin and AEBSF,various serine proteases,weaker
same,IC50,KLK5/SCTE,~2000 nM
same,inhibition of total protease activity in skin extracts,[3],efficacy of the inhibitor
same,IC50,KLK7/SCCE,~80 µM
same,IC50,pancreatic kallikrein,~20 µM
"COC(=O)[C@H](Cc1ccccc1)NC(=O)[C@@H](N)CC(=O)O [aspartame, N-L-alpha-aspartyl-L-phenylalanine 1-methyl ester] (H-Asp-Phe-OMe)",bone density from dental records,[4]; 150-300 mg/day over several years,bone density increase
same,"density of the right and left femur, mean",[4]; [8],1.2 g/cm2
same,femur density relative to the density of a young adult,[4]; [8],122%
same,lumbar spine bone density (L1-L4),[4]; [8],1.74 g/cm2
same,lumbar spine bone density relative to the density of a young adult,[4]; [8],148%
same,IC50,COX-1,< 1000 nM
same,pain associated with a burn,[5],relieved the pain
same,bleeding times,[6],significantly increased
same,platelet counts,[6],elevated
same,energy and muscle pain in chronic anemia patients,[7],more energy and less muscle pain
same,IC50,COX-2,< 1000 nM
same,calcification at the injured joints,SRT-ORT mouse model; P value <0.0001,increase
same,cortical bone density,SRT-ORT mouse model; P value of 0.0058,increase
same,quadriceps muscle mass index,SRT-ORT mouse model; P value of 0.0185,increase
Aprotinin,inhibition of SCTE,[1],effective in inhibiting this enzyme
same,toxicity / side effects,[2],known serious side effects
